Literature values as cited in US20230165842A1, “NEW USES” (priority 2020, published 2023).
Where two headings read alike, the source gives them in different places.

Columns and labels:
[1] = system: SARS-CoV-2; conditions: treated 24 hours prior to infection; read-out: IC50 in Calu-3
[2] = system: SARS-CoV-2; conditions: treated 24 hours prior to infection; read-out: IC50 in Vero
[3] = system: critically ill patients with COVID-19; conditions: compared to placebo or usual care
[4] = system: Vero C1008
[5] = system: SARS-CoV-2/USA/WI1/2020
[6] = system: SARS-CoV-2-Wuhan-Hu-1; conditions: Vero C1008
[7] = system: HCoV-OC43; conditions: Vero C1008; dose-dependent
[8] = system: SARS-CoV-2; conditions: Vero-E6
[9] = system: Vero-E6 cells; conditions: read-out: CC50 in
[10] = system: SARS-CoV-2; conditions: with increased concentrations; vs DMSO treated group

In the case of CCCCCC(=O)O[C@]1(C(C)=O)CC[C@H]2[C@@H]3CCC4=CC(=O)CC[C@]4(C)[C@H]3CC[C@@]21C [Compound 2, 17-hydroxyprogesterone-caproate], the IC50 [1] is given as 3.87 µM and the IC50 [2] is given as 6.3 µM.

In the case of C[C@]12CCC(=O)C=C1CC[C@@H]1[C@@H]2[C@@H](O)C[C@@]2(C)[C@H]1CC[C@]2(O)C(=O)CO [Compound 32, hydrocortisone], the “odds ratio (OR) of mortality” value [3] is listed as 0.69 (95% CI, 0.43-1.12; P = .13).

For C[S+]([O-])CCCCN=C=S (centres unmarked) [Compound 139, sulforaphane], the “cytotoxic dose TD50” value [4] is given as 73 to 89 µM, the “protein concentration in the bronchoalveolar lavage (BAL)” value ([5]; SFN daily oral gavage from one day prior to inoculation, vs untreated infected controls, P<0.0001) is given as “significantly lower” and the “reduction in viral titers, alveolar fluid” value ([5]; vs untreated controls, P=0.04) is given as 1.15 log. For the same compound, the “reduction in viral lung titers” value ([5]; vs untreated controls, normalized to PoI2Ra) was 1.5 log, the “SARS-CoV-2-Wuhan-Hu-1 virus-associated cell death” value ([6]; dose-dependent) was “effectively inhibited” and the IC50 ([6]; drug 1-2 hours before inoculation) was 12 µM. The “HCoV-OC43 virus-associated cell death” value [7] was “effectively inhibited”.

For Nc1ccn([C@@H]2O[C@H](CO)[C@@H](O)C2(F)F)c(=O)n1 [Compound 155, gemcitabine], the SI [8] is listed as 33, the EC50 ([8]; MOI 0.005) is listed as 1240 nM and the CC50 [9] is listed as > 40 µM. The “positive cells in IFA” value [10] was “significantly decreased positive cells”.
